From US6743583B2, “Identification of drugs and drug targets by detection of the stress response” (priority 2000, dated 2004)

Columns and labels:
[1] = tested on: yeast stress response genes; conditions: published data, cited from earlier work
tub2 heterozygote = assay: HSP26 promoter GFP-uv reporter stress response, fluorimeter; format: cell-based, Saccharomyces cerevisiae; parameters: key: F = fluorescent activity from hsp reporter construct, indicating stress response is induced; NF = no fluorescence, no induction of stress response; conditions: predicted expectations
Excerpt: (§1) Stress response gene reporter constructs are generally constructed as follows: approximately 500 bp to approximately 1,000 bp or more region upstream of the first start codon of the stress gene of interest (the region encompassing the stress response gene promoter) is fused to the coding region of a reporter polypeptide (e.g., GFP-uv in pRS316 (Sikorski and Hieter (1989) Genetics 122(1):19-27, Clontech). In a specific exemplary construct, approximately 500 bp of the sequence upstream of the hsp26 gene were ligated to the coding region of GFP-uv in pRS316 to provide for expression of the GFP-uv reporter polypeptide under control of the HSP26 promoter.
(§2) 80% of all heterozygous deletion strains of Saccharomyces cerevisiae have been constructed. Heterozygous deletion strains were generated using homologous gene transplacement (Rothstein, R. (1991) Meth. Enzymol. 194:281-301) in wild-type diploid strains using standard methods. The resulting heterozygotes carry a deletion in one of the two copies of a given gene.
(§3) The above-described HSP26 construct and a control construct (containing no upstream HSP26 promoter sequence) is transformed into 4 strains: a wildtype strain and strains heterozygous for ALG7, HIS3, and TUB2. The his3 heterozygous strain is sensitive to 3-amino triazole; the alg7 heterozygous strain is sensitive to tunicamycin; and the tub2 heterozygous strain is sensitive to benomyl. The expression of hsp26 activity is then monitored using a fluorimeter. Comparisons (with predicted expectations) are as follows: […]

his3 heterozygote = assay: as above; format: cell-based, Saccharomyces cerevisiae; parameters: key: F = fluorescent activity from hsp reporter construct, indicating stress response is induced; NF = no fluorescence, no induction of stress response; conditions: predicted expectations
Excerpt: as §1, §2, §3

alg7 heterozygote = assay: as above; format: cell-based, Saccharomyces cerevisiae; parameters: key: F = fluorescent activity from hsp reporter construct, indicating stress response is induced; NF = no fluorescence, no induction of stress response; conditions: predicted expectations
Excerpt: as §1, §2, §3

Wildtype strain = assay: as above; format: cell-based, Saccharomyces cerevisiae; parameters: key: F = fluorescent activity from hsp reporter construct, indicating stress response is induced; NF = no fluorescence, no induction of stress response; conditions: predicted expectations
Excerpt: as §1, §3

his3 heterozygous strain = conditions: cited from earlier work

C=CC[C@@H]1/C=C(\C)C[C@H](C)C[C@H](OC)[C@H]2O[C@@](O)(C(=O)C(=O)N3CCCC[C@H]3C(=O)O[C@H](/C(C)=C/[C@@H]3CC[C@@H](O)[C@H](OC)C3)[C@H](C)[C@@H](O)CC1=O)[C@H](C)C[C@@H]2OC [FK506]
fold induction of DDR48 (YMR173w) ([1]; FK506 50 μM): 1 fold
fold induction of HSP10 (YOR020C) ([1]; FK506 50 μM): 1 fold
fold induction of HSP12 (YFL014W) ([1]; FK506 50 μM): 1 fold
fold induction of HSP26 (YBR072W) ([1]; FK506 50 μM): 7.1 fold
fold induction of HSP30 (YCR021C) ([1]; FK506 50 μM): 2.3 fold
fold induction of HSP42 (YDR171w) ([1]; FK506 50 μM): 8.7 fold
fold induction of HSP60 (YLR259C) ([1]; FK506 50 μM): 1 fold
fold induction of HSP78 (YDR258C) ([1]; FK506 50 μM): 1 fold
fold induction of HSP82 (YPL240C) ([1]; FK506 50 μM): 1 fold
fold induction of HSP104 (YLL026W) ([1]; FK506 50 μM): 1 fold
fold induction of SSA1 (YAL005C) ([1]; FK506 50 μM): 1 fold
fold induction of UBC5 (YDR059c) ([1]; FK506 50 μM): 1.1 fold
fold induction of AMS1 (YGL156W) ([1]; FK506 50 μm): 2.2 fold
fold induction of GFA1 (YKL104C) ([1]; FK506 50 μm): 1 fold
fold induction of GSC2 (YGR032W) ([1]; FK506 50 μm): 1.1 fold
fold induction of HXT5 (YHR096C) ([1]; FK506 50 μm): 1.6 fold
fold induction of ISF1 (YMR081C) ([1]; FK506 50 μm): 5.4 fold
fold induction of PAI3 (YMR174C) ([1]; FK506 50 μm): 1 fold
fold induction of PRY1 (YJL079C) ([1]; FK506 50 μm): 1 fold
fold induction of PUT1 (YLR142W) ([1]; FK506 50 μm): 7.6 fold
fold induction of SNZ3 (YFL059W) ([1]; FK506 50 μm): 6.3 fold
fold induction of TSI1 (YLR178C) ([1]; FK506 50 μm): 1.3 fold
fold induction of YBL049W ([1]; FK506 50 μm): 6.7 fold
fold induction of YDR018C ([1]; FK506 50 μm): 8.9 fold
fold induction of YFL030W ([1]; FK506 50 μm): 2 fold
fold induction of YFR026C ([1]; FK506 50 μm): 3.7 fold
fold induction of YGR043C ([1]; FK506 50 μm): 2.1 fold
fold induction of YIL042C ([1]; FK506 50 μm): 2.7 fold
fold induction of YIL117C ([1]; FK506 50 μm): 1 fold
fold induction of YJL144W ([1]; FK506 50 μm): 7.6 fold
fold induction of YKL107W ([1]; FK506 50 μm): 2.5 fold
fold induction of YLR053C ([1]; FK506 50 μm): 5.5 fold
fold induction of YLR080W ([1]; FK506 50 μm): 5.5 fold
fold induction of YLR194C ([1]; FK506 50 μm): 1 fold
fold induction of YMR040W ([1]; FK506 50 μm): 1.6 fold
fold induction of YMR090W ([1]; FK506 50 μm): 1.2 fold
fold induction of YMR107W ([1]; FK506 50 μm): 5.9 fold
fold induction of YNL194C ([1]; FK506 50 μm): 6.3 fold
fold induction of YPS3 (YLR121C) ([1]; FK506 50 μm): 2.5 fold

Nc1nc[nH]n1 [3-amino triazole, 3-amino-triazole]
fluorescent activity from hsp26 reporter construct (tub2 heterozygote): F
fluorescent activity from hsp26 reporter construct (his3 heterozygote): NF
fluorescent activity from hsp26 reporter construct (alg7 heterozygote): F
fluorescent activity from hsp26 reporter construct (Wildtype strain): F
sensitivity of strain to drug (his3 heterozygous strain): sensitive
